The text below walks through data of patent publication US12209087B2, “AKT1 modulators” (Alterome Therapeutics, Inc., priority 2022, dated 2025).

The term IC50 denotes the concentration needed to halve the response being measured.

T1 sequence (P31749 whole entry E17K): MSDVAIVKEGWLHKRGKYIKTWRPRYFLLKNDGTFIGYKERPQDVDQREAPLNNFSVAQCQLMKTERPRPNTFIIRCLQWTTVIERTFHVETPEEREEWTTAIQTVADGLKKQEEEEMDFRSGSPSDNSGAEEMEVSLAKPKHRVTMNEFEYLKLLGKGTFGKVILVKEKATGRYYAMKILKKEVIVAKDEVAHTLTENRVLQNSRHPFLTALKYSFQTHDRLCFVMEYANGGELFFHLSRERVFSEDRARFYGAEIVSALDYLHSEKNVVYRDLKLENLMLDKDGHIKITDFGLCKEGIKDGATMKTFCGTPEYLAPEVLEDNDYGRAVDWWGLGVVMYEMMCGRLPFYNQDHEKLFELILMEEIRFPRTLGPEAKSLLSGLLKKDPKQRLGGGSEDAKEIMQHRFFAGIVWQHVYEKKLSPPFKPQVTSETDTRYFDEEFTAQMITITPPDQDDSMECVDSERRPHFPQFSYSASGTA

This assay addresses T1, full length AKT E17K (Homo sapiens, UniProt P31749, E17K).
T1 construct: host or cells: HEK-293 (ATCC CRL-1573)
Description: NanoBRET Target Engagement (TE) Assay. The assay is classed as cell-based. Particulars: competitive displacement of tracer in cells, read-out: AKT1 E17K IC50. In outline: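 Compound and tracer incubated 2 h before luminescence at donor 450 nm and acceptor 600 nm, with extracellular signal inhibited. EC50 by sigmoidal variable-slope regression.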
For orientation: BRET reads energy transfer from a luciferase to a nearby fluorophore.
For `CCn1cc(-c2ccc3nc(-c4cccnc4N)n(-c4ccc(CN5CCC(Nc6ccnc(C#N)n6)CC5)cc4)c3n2)cn1` [Example 466, 4-((1-(4-(2-(2-Aminopyridin-3-yl)-5-(1-ethyl-1H-pyrazol-4-yl)-3H-imidazo[4,5-b]pyridin-3-yl)benzyl)piperidin-4-yl)amino)pyrimidine-2-carbonitrile], the IC50 is below 15 nM. Consider `Cn1nccc1-c1ccc2nc(-c3cccnc3N)n(-c3ccc(CN4CCC(Nc5ccnc(C#N)n5)CC4)cc3)c2n1` [Example 467, 4-((1-(4-(2-(2-Aminopyridin-3-yl)-5-(1-methyl-1H-pyrazol-5-yl)-3H-imidazo[4,5-b]pyridin-3-yl)benzyl)piperidin-4-yl)amino)pyrimidine-2-carbonitrile], for which the IC50 was below 15 nM.

On to `N#Cc1nccc(NC2CCN(Cc3ccc(-n4c(-c5cccnc5N)nc5ccc(-c6cccc(N7CCCC7=O)c6)nc54)cc3)CC2)n1` [Example 468, 4-((1-(4-(2-(2-Aminopyridin-3-yl)-5-(3-(2-oxopyrrolidin-1-yl)phenyl)-3H-imidazo[4,5-b]pyridin-3-yl)benzyl)piperidin-4-yl)amino)pyrimidine-2-carbonitrile], for which the IC50 was below 15 nM. As to `COc1cc(F)ccc1-c1ccc2nc(-c3cccnc3N)n(-c3ccc(CN4CCC(Nc5ccnc(C#N)n5)CC4)cc3)c2n1` [Example 469, 4-((1-(4-(2-(2-Aminopyridin-3-yl)-5-(4-fluoro-2-methoxyphenyl)-3H-imidazo[4,5-b]pyridin-3-yl)benzyl)piperidin-4-yl)amino)pyrimidine-2-carbonitrile], the concentration for half-maximal inhibition (IC50) was below 15 nM. For `N#Cc1nccc(NC2CCN(Cc3ccc(-n4c(-c5cccnc5N)nc5ccc(-c6ccccc6C(F)(F)F)nc54)cc3)CC2)n1` [Example 470, 4-((1-(4-(2-(2-Aminopyridin-3-yl)-5-(2-(trifluoromethyl)phenyl)-3H-imidazo[4,5-b]pyridin-3-yl)benzyl)piperidin-4-yl)amino)pyrimidine-2-carbonitrile], the concentration for half-maximal inhibition (IC50) lay within 60 to 600 nM. On to `N#Cc1nccc(NC2CCN(Cc3ccc(-n4c(-c5cccnc5N)nc5ccc(-c6ccc(C(F)(F)F)cc6)nc54)cc3)CC2)n1` [Example 471, 4-((1-(4-(2-(2-Aminopyridin-3-yl)-5-(4-(trifluoromethyl)phenyl)-3H-imidazo[4,5-b]pyridin-3-yl)benzyl)piperidin-4-yl)amino)pyrimidine-2-carbonitrile], for which the half-maximal inhibitory concentration (IC50) fell in the range of 15 to 60 nM. For the compound `Cn1ncc(-c2ccc3nc(-c4cccnc4N)n(-c4ccc(CN5CCC(Nc6ccnc(C#N)n6)CC5)cc4)c3n2)n1` [Example 472, 4-((1-(4-(2-(2-Aminopyridin-3-yl)-5-(2-methyl-2H-1,2,3-triazol-4-yl)-3H-imidazo[4,5-b]pyridin-3-yl)benzyl)piperidin-4-yl)amino)pyrimidine-2-carbonitrile], the IC50 was below 15 nM. Consider `Cc1noc(C)c1-c1ccc2nc(-c3cccnc3N)n(-c3ccc(CN4CCC(Nc5ccnc(C#N)n5)CC4)cc3)c2n1` [Example 473, 4-((1-(4-(2-(2-Aminopyridin-3-yl)-5-(3,5-dimethylisoxazol-4-yl)-3H-imidazo[4,5-b]pyridin-3-yl)benzyl)piperidin-4-yl)amino)pyrimidine-2-carbonitrile], for which the IC50 is below 15 nM. With `N#Cc1nccc(NC2CCN(Cc3ccc(-n4c(-c5cccnc5N)nc5ccc(-c6cnn(C(F)F)c6)nc54)cc3)CC2)n1` [Example 474, 4-((1-(4-(2-(2-Aminopyridin-3-yl)-5-(1-(difluoromethyl)-1H-pyrazol-4-yl)-3H-imidazo[4,5-b]pyridin-3-yl)benzyl)piperidin-4-yl)amino)pyrimidine-2-carbonitrile], the 50% inhibitory concentration (IC50) was below 15 nM. For `N#Cc1nccc(NC2CCN(Cc3ccc(-n4c(-c5cccnc5N)nc5ccc(-c6ccc(F)cc6F)nc54)cc3)CC2)n1` [Example 475, 4-((1-(4-(2-(2-Aminopyridin-3-yl)-5-(2,4-difluorophenyl)-3H-imidazo[4,5-b]pyridin-3-yl)benzyl)piperidin-4-yl)amino)pyrimidine-2-carbonitrile], the IC50 was below 15 nM.

As for `COc1cccc(-c2ccc3nc(-c4cccnc4N)n(-c4ccc(CN5CCC(Nc6ccnc(C#N)n6)CC5)cc4)c3n2)n1` [Example 476, 4-((1-(4-(2-(2-Aminopyridin-3-yl)-5-(6-methoxypyridin-2-yl)-3H-imidazo[4,5-b]pyridin-3-yl)benzyl)piperidin-4-yl)amino)pyrimidine-2-carbonitrile], the half-maximal inhibitory concentration (IC50) is below 15 nM. Take `Cc1cc(-c2ccc3nc(-c4cccnc4N)n(-c4ccc(CN5CCC(Nc6ccnc(C#N)n6)CC5)cc4)c3n2)ccn1` [Example 477, 4-((1-(4-(2-(2-Aminopyridin-3-yl)-5-(2-methylpyridin-4-yl)-3H-imidazo[4,5-b]pyridin-3-yl)benzyl)piperidin-4-yl)amino)pyrimidine-2-carbonitrile]: the concentration for half-maximal inhibition (IC50) was below 15 nM. As for `Cc1cncc(-c2ccc3nc(-c4cccnc4N)n(-c4ccc(CN5CCC(Nc6ccnc(C#N)n6)CC5)cc4)c3n2)c1` [Example 478, 4-((1-(4-(2-(2-Aminopyridin-3-yl)-5-(5-methylpyridin-3-yl)-3H-imidazo[4,5-b]pyridin-3-yl)benzyl)piperidin-4-yl)amino)pyrimidine-2-carbonitrile], the IC50 was below 15 nM.

With `CC(C)n1cc(-c2ccc3nc(-c4cccnc4N)n(-c4ccc(CN5CCC(Nc6ccnc(C#N)n6)CC5)cc4)c3n2)cn1` [Example 479, 4-((1-(4-(2-(2-Aminopyridin-3-yl)-5-(1-isopropyl-1H-pyrazol-4-yl)-3H-imidazo[4,5-b]pyridin-3-yl)benzyl)piperidin-4-yl)amino)pyrimidine-2-carbonitrile], the concentration for half-maximal inhibition (IC50) was below 15 nM. With `N#Cc1nccc(NC2CCN(Cc3ccc(-n4c(-c5cccnc5N)nc5ccc(-c6cnsc6)nc54)cc3)CC2)n1` [Example 480, 4-((1-(4-(2-(2-Aminopyridin-3-yl)-5-(isothiazol-4-yl)-3H-imidazo[4,5-b]pyridin-3-yl)benzyl)piperidin-4-yl)amino)pyrimidine-2-carbonitrile], the concentration for half-maximal inhibition (IC50) was below 15 nM. For `Cn1cc(-c2ccc3nc(-c4cccnc4N)n(-c4ccc(CN5CCC(Nc6ccnc(C#N)n6)CC5)cc4)c3n2)cc1C#N` [Example 481, 4-((1-(4-(2-(2-Aminopyridin-3-yl)-5-(5-cyano-1-methyl-1H-pyrrol-3-yl)-3H-imidazo[4,5-b]pyridin-3-yl)benzyl)piperidin-4-yl)amino)pyrimidine-2-carbonitrile], the IC50 is below 15 nM. Turning to `N#Cc1nccc(NC2CCN(Cc3ccc(-n4c(-c5cccnc5N)nc5ccc(-c6cscn6)nc54)cc3)CC2)n1` [Example 482, 4-((1-(4-(2-(2-Aminopyridin-3-yl)-5-(thiazol-4-yl)-3H-imidazo[4,5-b]pyridin-3-yl)benzyl)piperidin-4-yl)amino)pyrimidine-2-carbonitrile], the IC50 was below 15 nM. Take `N#Cc1nccc(NC2CCN(Cc3ccc(-n4c(-c5cccnc5N)nc5ccc(-c6ccns6)nc54)cc3)CC2)n1` [Example 483, 4-((1-(4-(2-(2-Aminopyridin-3-yl)-5-(isothiazol-5-yl)-3H-imidazo[4,5-b]pyridin-3-yl)benzyl)piperidin-4-yl)amino)pyrimidine-2-carbonitrile]: the half-inhibitory concentration (IC50) is below 15 nM.

For `Cc1c(-c2ccc3nc(-c4cccnc4N)n(-c4ccc(CN5CCC(Nc6ccnc(C#N)n6)CC5)cc4)c3n2)cnn1C` [Example 484, 4-((1-(4-(2-(2-Aminopyridin-3-yl)-5-(1,5-dimethyl-1H-pyrazol-4-yl)-3H-imidazo[4,5-b]pyridin-3-yl)benzyl)piperidin-4-yl)amino)pyrimidine-2-carbonitrile], the 50% inhibitory concentration (IC50) was below 15 nM. Regarding `N#Cc1nccc(NC2CCN(Cc3ccc(-n4c(-c5cccnc5N)nc5ccc(Br)nc54)cc3)CC2)n1` [Example 485, 4-((1-(4-(2-(2-Aminopyridin-3-yl)-5-bromo-3H-imidazo[4,5-b]pyridin-3-yl)benzyl)piperidin-4-yl)amino)pyrimidine-2-carbonitrile], the IC50 was below 15 nM. As for `[2H]C([2H])(c1ccc(-n2c(-c3cccnc3N)nc3ccc(Br)nc32)cc1)N1CCC(Nc2ccnc(C#N)n2)CC1` [Example 486, 4-((1-((4-(2-(2-Aminopyridin-3-yl)-5-bromo-3H-imidazo[4,5-b]pyridin-3-yl)phenyl)methyl-d2)piperidin-4-yl)amino)pyrimidine-2-carbonitrile], the IC50 was below 15 nM. `N#Cc1ncnc(NC2CCN(Cc3ccc(-n4c(-c5cccnc5N)nc5ccc(-c6ccc(F)cc6)nc54)cc3)CC2)n1` [Example 487, 4-((1-(4-(2-(2-Aminopyridin-3-yl)-5-(4-fluorophenyl)-3H-imidazo[4,5-b]pyridin-3-yl)benzyl)piperidin-4-yl)amino)-1,3,5-triazine-2-carbonitrile]: the IC50 was below 15 nM.

In the case of `[2H]C([2H])(c1ccc(-n2c(-c3cccnc3N)nc3ccc(-c4ccc(F)cc4)nc32)cc1)N1CCC(N(C)c2ccnc(C#N)n2)CC1` [Example 488, 4-((1-((4-(2-(2-Aminopyridin-3-yl)-5-(4-fluorophenyl)-3H-imidazo[4,5-b]pyridin-3-yl)phenyl)methyl-d2)piperidin-4-yl)(methyl)amino)pyrimidine-2-carbonitrile], the IC50 was below 15 nM. For the compound `[2H]C([2H])(c1ccc(-n2c(-c3cccnc3N)nc3ccc(-c4ccc(F)cc4)nc32)cc1)N1CCC(Nc2ccnc(C#N)n2)CC1` [Example 489, 4-((1-((4-(2-(2-Aminopyridin-3-yl)-5-(4-fluorophenyl)-3H-imidazo[4,5-b]pyridin-3-yl)phenyl)methyl-d2)piperidin-4-yl)amino)pyrimidine-2-carbonitrile], the IC50 is below 15 nM. Turning to `N#Cc1nccc(N2CC3(CCN(Cc4ccc(-n5c(-c6cccnc6N)nc6ccc(-c7ccc(F)cc7)nc65)cc4)CC3)C2)n1` [Example 490, 4-(7-(4-(2-(2-Aminopyridin-3-yl)-5-(4-fluorophenyl)-3H-imidazo[4,5-b]pyridin-3-yl)benzyl)-2,7-diazaspiro[3.5]nonan-2-yl)pyrimidine-2-carbonitrile], the half-maximal inhibitory concentration (IC50) is below 15 nM.
